Data set [1] in a line: Effect of comonomers on LCST (slope of LCST vs. mol %). It counts as physicochemical. Particulars: comonomer in NIPAAm-based temperature-responsive polymers. An excerpt:
The effect on LCST of a comonomer can be determined by preparing polymers with varying content and evaluating the slope of a line of best fit for the plot of LCST vs. mol % X, where X is the comonomer.

Data set [2] in a line: Solubility in water. It counts as physicochemical.
In data set [3] the test system is E. coli (25922). The experiment in a line: Minimum biofilm eradication concentration (MBEC) on rabbit muscle. In kind it is cell-based. As for the experimental part:
(§1) MBEC of biofilms grown on rabbit muscle specimens in vitro was determined. The goal of the study was to compare the relative spectrum of antimicrobial activity of TOB and VANC either alone or in combination. […] This method also allows for controlled culture conditions and quantitative data without confounding phenomena that would be present in an animal model of infection such as variability throughout a single infection, host immune function, and release/transport of antimicrobials.
(§2) Aseptically obtained rabbit muscle samples (˜40 mg) were incubated in bacterial suspension for 3 days to allow biofilm growth. Tissue specimens were then rinsed and placed in separate wells of a 96-well plate. Medium containing various concentrations of antimicrobials (4000, 2000, 1000, 750, 500, 250, 125, 64, 32, 16, and 0 μg/mL) were then added to the wells containing the contaminated tissue samples. Plates were then incubated for either 6, 24, or 72 hours at 37° C. Following this “exposure time,” the antimicrobial-containing medium was removed and specimens were rinsed with antimicrobial-free growth medium at least 4 times to remove any residual antimicrobials. Then the specimens were subcultured in separate test tubes containing antimicrobial-free medium and incubated at 37° C.
(§3) In each series of specimens for a given strain, antimicrobial treatment, and exposure time, the lowest antimicrobial concentration showing no growth after 21 day subculture was measured to be the MBEC. If all subcultures were positive, the MBEC was determined to be >4000 μg/mL. Selected positive subcultures were confirmed by culture identification at a third-party diagnostic laboratory.

Data set [4] deals with E. faecalis (29212). Described as above. It counts as cell-based. As for the experimental part: as §1, §2, §3
Data set [5] relates to P. aeruginosa (27853). The data set is described as above. It counts as cell-based. As for the experimental part: as §1, §2, §3
Data set [6] concerns S. aureus (49230). The description is as above. In kind it is cell-based. As to the method: as §1, §2, §3
The subject of data set [7] is S. aureus (BAA 1556). Described as above. In kind it is cell-based. As for the experimental part: as §1, §2, §3
For data set [8], the system named is S. aureus (BAA 1680). The description is as above. It counts as cell-based. As for the experimental part:
as §1, §2, §3

Data set [9] deals with S. epidermidis (29886). Described as above. In kind it is cell-based. As to the method:
as §1, §2, §3

Data set [10] concerns S. epidermidis (35984). The description is as above. In kind it is cell-based. As to the method:
as §1, §2, §3

Data set [11] concerns S. epidermidis (700583). Described as above. It counts as cell-based. As to the method:
as §1, §2, §3

Data set [12] concerns Ten laboratory standard bacterial strains. The experiment in a line: MBEC summary over the bacterial strains tested. It counts as cell-based. The note with it: for Strains with MBEC>1,000 μg/mL: 24 and 72 hr exposure. As to the method: Ten laboratory standard bacterial strains intended to represent the spectrum of pathogens found in surgical site infections were evaluated: 3 S. aureus (2 methicillin-resistant, 1 methicillin-sensitive), 4 S. epidermidis (1 methicillin-resistant, 3 methicillin-sensitive), K Faecalis, P. Aeruginosa, and E. Coli (ATCC #BAA-1556, BAA-1680, 49230, 35984, 29886, 700583, 14990, 29212, 27853, and 25922). Both MRSA strains tested (BAA-1556, BAA-1680) are susceptible or intermediately susceptible to both TOB and VANC. S. epidermidis (35984), P. aeruginosa (27853), and E. faecalis (29212) are tobramycin-resistant. None of the gram-positive organisms tested are resistant to vancomycin. Vancomycin is not effective against gram-negative bacteria (E. coli, P. aeruginosa).
as §3

Data set [13] in a line: Degradation vs. incubation temperature in 0.2 M phosphate buffer (accelerated stability method). In kind it is physicochemical. As to the method:
A high concentration of phosphate ions is known to decrease the LCST, an effect known as “salting-out.” Thus, the LCST values measured in this study are lower than for the same polymer in PBS. The polymer was dissolved at 3 mg/mL in 0.2 M phosphate buffer (pH 7.4). […] The buffer was not replaced. This was done to maintain a controlled experiment between temperatures because the samples at low temperatures contained polymer solution, preventing exchange of the buffer. Tubes contained transparent solution at 4° C. and slightly turbid solution at 22° C. Samples incubated at 40-80° C. formed opaque, milky solutions immediately upon heating. After overnight storage, samples incubated at 40-80° C. contained a separated solid precipitate phase at the bottom of the tube, and transparent overlying buffer. […] The LCST of each sample was determined using a cloud point method. […] At each temperature, the absorbance of the solution was measured using a spectrophotometer (450 nm). The temperature at which the absorbance was half of the maximum value was recorded as the LCST. […] For temperatures at which 30° C. was not measured, linear interpolation between the nearest two data points was used to calculate the time at which LCST reached 30° C. […] A separate study evaluated the polymer PNJ1.3-DB20 using the same methods with incubation at 4, 37, 60, and 80° C. in 0.2 M phosphate buffer (pH 7.4). […]

Data set [14] is described as follows: Stability of hydrophobic comonomers in 95° C. stress conditions, pH 4, titration. Particulars: up to 14 days at 95° C. It counts as physicochemical.
Description: Stability of additional monomers was also evaluated in 95° C. stress conditions as hydrophobic monomers with the function of decreasing the LCST. […] The polymers were dissolved at 50 mg/mL in 0.2 M sodium acetate-acetic acid buffer (pH 4). Separate samples of 5 mL each were incubated at 95° C. for 0, 2, 4, 7, or 14 days to evaluate stability of the hydrophobic monomers, as NIPAAm and JAAm are known to be relatively stable in these conditions. After the designated time, samples were cooled and stirred to re-dissolve the polymer, and the solution was dialyzed to remove salts and any degradants. Then 100 mg of the recovered material for each sample was dissolved in 10 mL deionized water and evaluated for acid content by titration using phenolphthalein as the indicator and 1 mM NaOH as the titrant. The titration data were corrected against a control sample which contained only deionized water, as about 0.9 mL of titrant in 10 mL was required for the indicator to change color.
Data set [15] relates to S. aureus ATCC 49230. The experiment in a line: Rabbit infection treatment model. In kind it is in vivo. Particulars: comparator treatments. As to the method: The present studies utilized the same rabbit infection treatment model initially adapted from Nelson and colleagues delivering tobramycin mixed into the hydrogel by the methods described herein. Twenty rabbits were infected with S. aureus ATCC 49230 and six rabbits were infected with MRSA ATCC BAA-1556. The polymer used in the hydrogels was PNJ18-DBLA with the composition reported in Table 34, and the hydrogel contained 3.14 wt % tobramycin as an active agent which was dissolved separately at the time of use and mixed with polymer solution by end-to-end syringe mixing.

The conditions of data set [16]: cited from earlier work.
The conditions of data set [17]: dog, in vivo; cited from earlier work.

Like-named read-outs stand apart in the source and are kept apart here. Some results are limits rather than exact numbers.

On to `C=CC(=O)OC1C(=O)OCC1(C)C` (stereo not drawn) [DBLA, dimethyl butyrolactone acrylate], for which the “Effect on LCST” value in data set [1] is −1.8 ° C./mol %.
Turning to `CN[C@H](CC(C)C)C(=O)N[C@H]1C(=O)N[C@@H](CC(N)=O)C(=O)N[C@H]2C(=O)N[C@H]3C(=O)N[C@H](C(=O)N[C@H](C(=O)O)c4cc(O)cc(O)c4-c4cc3ccc4O)[C@H](O)c3ccc(c(Cl)c3)Oc3cc2cc(c3O[C@@H]2O[C@H](CO)[C@@H](O)[C@H](O)[C@H]2O[C@H]2C[C@](C)(N)[C@H](O)[C@H](C)O2)Oc2ccc(cc2Cl)[C@H]1O` [VANC, vancomycin], the Maximum solubility in data set [2] (about pH 3) was about 19 wt %. In data set [2] (pH 4-7.4), this compound displayed a Solubility of at most 2 wt %. In addition, the MBEC in data set [3] (6 hr exposure) was over 4000 µg/mL; in data set [3] (24 hr exposure) it was over 4000 µg/mL; in data set [3] (72 hr exposure) it was over 4000 µg/mL; in data set [4] (6 hr exposure) it was 1000 µg/mL; in data set [4] (24 hr exposure) it was 375 µg/mL; in data set [4] (72 hr exposure), 250 µg/mL. Also, the MBEC in [5] (6 hr exposure) is over 4000 µg/mL; in data set [5] (24 hr exposure) it was over 4000 µg/mL; in data set [5] (72 hr exposure), over 4000 µg/mL; in data set [6] (6 hr exposure), over 4000 µg/mL; in [6] (24 hr exposure), over 4000 µg/mL; in data set [6] (72 hr exposure) it was 2000 µg/mL. Further, the MBEC in data set [7] (6 hr exposure) was 4000 µg/mL; in data set [7] (24 hr exposure) it was 2000 µg/mL; in data set [7] (72 hr exposure) it was 1000 µg/mL; in data set [8] (6 hr exposure) it was 4000 µg/mL; in data set [8] (24 hr exposure), 2000 µg/mL; in data set [8] (72 hr exposure), 2000 µg/mL. The MBEC in data set [9] (6 hr exposure) is 375 µg/mL; in data set [9] (24 hr exposure) it was 375 µg/mL; in data set [9] (72 hr exposure) it was 375 µg/mL; in data set [10] (6 hr exposure), 4000 µg/mL; in data set [10] (24 hr exposure) it was 750 µg/mL; in data set [10] (72 hr exposure) it was 375 µg/mL. Further, the MBEC in data set [11] (6 hr exposure), in data set [11] (24 hr exposure) and in [11] (72 hr exposure) was 1000 µg/mL in each case. Besides, in [12], the “Strains with MBEC>1,000 μg/mL” value is listed as 6 strains. In addition, the “# Strains w/ MBEC ≥1000 μg/mL” value is recorded as 8/10 in data set [12] (6 hr exposure), 6/10 in data set [12] (24 hr exposure) and 6/10 in [12] (72 hr exposure). For the same compound, the “Max. MBEC” value in data set [12] (24 hr exposure) was over 4000 µg/mL. For the same compound, in data set [12] (24 hr exposure), the “Median MBEC” value is 750 µg/mL.
Take “poly(NIPAAm-co-DBLA-co-JAAm) [PNJ18-DBLA]”: in data set [13], the “Degradation at 22° C., times faster than at 4° C.” value was 3.63 times and the “Degradation at 80° C., times faster than at 40° C.” value was 11.67 times.
As for `C=CC(=O)O` [Acrylic acid], the “Effect on LCST” value in [1] is listed as “+2.6 ° C./mol %”.
On to `C=CC(=O)OC(C)(C)C` [Tert-butyl acrylate, tert-butyl acrylate], for which the “Effect on LCST” value in data set [1] was −0.69 ° C./mol %. The Initial structure retained result in data set [14] was “poorest stability”.
Take `C=C(C)C(=O)OCCCC` [BMA, butyl methacrylate]: in data set [1], the “Effect on LCST” value is listed as −0.62 ° C./mol %.
Turning to `NC[C@H]1O[C@H](O[C@H]2[C@H](O)[C@@H](O[C@H]3O[C@H](CO)[C@@H](O)[C@H](N)[C@H]3O)[C@H](N)C[C@@H]2N)[C@H](N)C[C@@H]1O` [TOB, tobramycin], the “Solubility in aqueous solutions” value in data set [2] (over a range of pH values) is over 30 wt %. In addition, the MBEC is 250 µg/mL in [3] (6 hr exposure); 62 µg/mL in data set [3] (24 hr exposure); 62 µg/mL in [3] (72 hr exposure); over 4000 µg/mL in data set [4] (6 hr exposure); over 4000 µg/mL in data set [4] (24 hr exposure); over 4000 µg/mL in [4] (72 hr exposure). The MBEC in data set [5] (6 hr exposure) stood at 2000 µg/mL; in [5] (24 hr exposure) it was 375 µg/mL; in data set [5] (72 hr exposure), 62 µg/mL; in [6] (6 hr exposure), 500 µg/mL; in data set [6] (24 hr exposure) it was 375 µg/mL; in [6] (72 hr exposure) it was 250 µg/mL. The MBEC in data set [7] (6 hr exposure) is 2000 µg/mL; in [7] (24 hr exposure) it was 375 µg/mL; in data set [7] (72 hr exposure), 250 µg/mL; in data set [8] (6 hr exposure), over 4000 µg/mL; in [8] (24 hr exposure) it was over 4000 µg/mL; in data set [8] (72 hr exposure) it was 4000 µg/mL. The MBEC is 125 µg/mL in data set [9] (6 hr exposure); 125 µg/mL in data set [9] (24 hr exposure); 31 µg/mL in data set [9] (72 hr exposure); over 4000 µg/mL in [10] (6 hr exposure); over 4000 µg/mL in [10] (24 hr exposure); over 4000 µg/mL in [10] (72 hr exposure). Further, the MBEC in [11] (6 hr exposure) came to 125 µg/mL; in data set [11] (24 hr exposure), 250 µg/mL; in [11] (72 hr exposure), 375 µg/mL. For the same compound, the “Strains with MBEC>1,000 μg/mL” value in data set [12] was found to be 3 strains. For the same compound, the figures for the “# Strains w/ MBEC ≥1000 μg/mL” value in [12] (6 hr exposure), in data set [12] (24 hr exposure) and in [12] (72 hr exposure) were 5/10, 3/10 and 3/10, respectively. The “Max. MBEC” value in [12] (24 hr exposure) was over 4000 µg/mL. For the same compound, the “Median MBEC” value in [12] (24 hr exposure) worked out at 250 µg/mL. In addition, in data set [15], the “Rabbits that remained infected” value is 4/7.
On to `C=CC(=O)OCCCC` [Butyl acrylate, butyl acrylate], for which the “Effect on LCST” value in data set [1] is listed as −0.44 ° C./mol %.
Turning to `C=CC(=O)NC(C)(C)C` [Tert-butyl acrylamide, tert-butyl acrylamide], the “Effect on LCST” value in [1] is given as −0.41 ° C./mol %.
The same measure, in the same setting: the figure for `C=CC(=O)NC1C(=O)OCC1(C)C` (stereo not drawn) [DBLAAm, dimethyl butyrolactone acrylamide] is −0.51 ° C./mol %.
Turning to `CCCCN1CCCCC1C(=O)Nc1c(C)cccc1C` (stereo not drawn) [bupivacaine], the Water solubility entry is “approximately 200 μg/mL” in [16], “less than 0.1 wt %” in [16] (higher pH above 7.64) and 2-5 wt % in [16] (pH≈6). Also, the Toxic systemic levels in data set [17] was 1,000-2,000 ng/mL.
